The values below come from patent publication US12280138B2, “Dedifferentiated cell extract of Bletilla and method for whitening, anti-oxidation and anti-wrinkling applying the same, and cosmetic comprising the same” (CHLITINA INTELLIGENCE LIMITED, priority 2021, dated 2025).

Each structure is given as a SMILES string.

The test system of one test is zebrafish embryos. Kind of test: Whitening efficacy in zebrafish experiment (melanin plaques). It counts as in vivo. The note with it: 10 mM (about 1421 μg/ml). How it is done:
The wild-type zebrafish were stimulated to spawn, and the eggs spawned within one hour were collected. Upon 9 hours after fertilization, the embryos were screened by microscope to confirm the developmental state after fertilization. Each group had 12 fish embryos. The E3 culture medium, which was the zebrafish embryo culture medium, served as the control group. The positive control group was added with kojic acid (Kojic acid). Each experimental group was added with Example 1, Comparative example 1 and Comparative example 2, respectively. As zebrafish embryos produced melanin within 24 hours after fertilization, the treatment finished before the production of melanin, and the melanin production state in the hatched fish was observed upon 72 hours after fertilization. First, the fish was anesthetized and placed on a flat surface. The photo was taken from a top view, and the melanin plaques were analyze by the software of ImageJ. The intensity of the melanin plaque in the control group served as the standard, that is, the melanin amount thereof was 100%. The relative melanin amounts of the rest of the groups were calculated.

The subject of another test is melanosis. The note with it: 1% kojic acid applied to male and female subjects; cited from earlier work.

For `O=c1cc(CO)occ1O` [kojic acid], in the test on zebrafish embryos, the “Inhibition rate of melanin production” value is “about 55%”. Further, the melanosis result in the test on melanosis is listed as “significantly inhibited”.
